From ChEMBL document CHEMBL5678818, “Discovery of potent SOS1 inhibitors that block RAS activation via disruption of the RAS-SOS1 interaction” (Proc Natl Acad Sci U S A, 2019)
The source made the active and inactive calls. No cut-off for these calls is given here.

Assays:
[1] = biological target: T1, Serine/threonine-protein kinase Nek3 (Homo sapiens) (UniProt P51956); assay: Inhibition of NEK3 (unknown origin) assessed as residual activity at 100 nM by KINOMEscan analysis relative to control
T1 sequence (whole entry): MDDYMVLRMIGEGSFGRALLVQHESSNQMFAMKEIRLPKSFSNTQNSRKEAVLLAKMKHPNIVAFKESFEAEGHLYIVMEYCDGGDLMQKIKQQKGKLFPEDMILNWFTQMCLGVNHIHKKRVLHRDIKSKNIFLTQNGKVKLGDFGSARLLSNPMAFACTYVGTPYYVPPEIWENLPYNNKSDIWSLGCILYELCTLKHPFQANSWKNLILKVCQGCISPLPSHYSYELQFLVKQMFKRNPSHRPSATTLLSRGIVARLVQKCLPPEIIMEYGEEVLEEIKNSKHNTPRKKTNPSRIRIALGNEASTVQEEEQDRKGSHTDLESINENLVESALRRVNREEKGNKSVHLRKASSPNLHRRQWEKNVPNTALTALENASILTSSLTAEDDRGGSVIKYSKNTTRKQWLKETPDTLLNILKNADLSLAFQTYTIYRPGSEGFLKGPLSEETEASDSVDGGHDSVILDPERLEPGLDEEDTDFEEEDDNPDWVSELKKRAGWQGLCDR

[2] = biological target: Serine/threonine-protein kinase 38-like (Homo sapiens) (UniProt Q9Y2H1); assay: Inhibition of NDR2 (unknown origin) assessed as residual activity at 100 nM by KINOMEscan analysis relative to control
[3] = biological target: T2, Son of sevenless homolog 1 (Homo sapiens) (UniProt Q07889); assay: Binding affinity to N-terminal His10-tagged wild-type recombinant human SOS1 catalytic domain (564 to 1049 residues) expressed in Escherichia coli assessed as binding at 1:1 stoichiometry at 100 uM incubated for 1 hr by native MS analysis
T2 sequence (whole entry): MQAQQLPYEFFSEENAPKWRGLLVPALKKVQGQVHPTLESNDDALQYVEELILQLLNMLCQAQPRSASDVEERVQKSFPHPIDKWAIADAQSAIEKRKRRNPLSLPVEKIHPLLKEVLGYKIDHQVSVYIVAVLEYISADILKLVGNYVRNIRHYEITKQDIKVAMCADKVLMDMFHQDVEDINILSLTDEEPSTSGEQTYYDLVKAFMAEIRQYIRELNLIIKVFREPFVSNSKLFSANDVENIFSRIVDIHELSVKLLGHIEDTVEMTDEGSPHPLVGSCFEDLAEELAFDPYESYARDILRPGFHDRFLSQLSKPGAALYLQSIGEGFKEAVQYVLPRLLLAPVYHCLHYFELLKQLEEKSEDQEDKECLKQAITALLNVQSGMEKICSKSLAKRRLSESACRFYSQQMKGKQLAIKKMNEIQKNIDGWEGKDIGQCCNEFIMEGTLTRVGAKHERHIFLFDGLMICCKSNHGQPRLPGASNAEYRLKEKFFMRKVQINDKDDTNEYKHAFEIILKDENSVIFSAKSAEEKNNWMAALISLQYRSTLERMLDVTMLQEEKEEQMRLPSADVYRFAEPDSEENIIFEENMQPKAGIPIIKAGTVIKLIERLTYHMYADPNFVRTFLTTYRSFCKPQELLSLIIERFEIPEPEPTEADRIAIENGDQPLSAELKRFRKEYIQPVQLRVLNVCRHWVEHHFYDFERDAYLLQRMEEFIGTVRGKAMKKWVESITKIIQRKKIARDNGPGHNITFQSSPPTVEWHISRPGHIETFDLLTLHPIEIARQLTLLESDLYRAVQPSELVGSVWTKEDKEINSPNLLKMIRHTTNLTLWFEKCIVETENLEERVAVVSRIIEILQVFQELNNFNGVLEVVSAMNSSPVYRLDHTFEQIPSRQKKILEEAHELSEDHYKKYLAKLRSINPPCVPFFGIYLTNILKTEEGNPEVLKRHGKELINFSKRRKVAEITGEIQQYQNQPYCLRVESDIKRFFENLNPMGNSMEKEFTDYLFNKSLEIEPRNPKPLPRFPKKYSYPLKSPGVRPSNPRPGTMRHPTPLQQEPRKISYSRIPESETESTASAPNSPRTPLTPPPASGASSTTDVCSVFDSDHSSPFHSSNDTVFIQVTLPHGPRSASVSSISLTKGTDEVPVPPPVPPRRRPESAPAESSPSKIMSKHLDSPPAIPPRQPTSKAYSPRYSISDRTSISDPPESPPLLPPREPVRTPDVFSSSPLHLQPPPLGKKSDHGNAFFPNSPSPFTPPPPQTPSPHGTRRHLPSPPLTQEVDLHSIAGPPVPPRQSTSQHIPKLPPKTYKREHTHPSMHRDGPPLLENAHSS

[4] = biological target: Serine/threonine-protein kinase 38 (Homo sapiens) (UniProt Q15208); assay: Inhibition of NDR1 (unknown origin) assessed as residual activity at 100 nM by KINOMEscan analysis relative to control
[5] = test system: Receptor-type tyrosine-protein kinase FLT3 (Homo sapiens), P36888 [K663Q]; assay: Inhibition of FLT3 K663Q mutant (unknown origin) assessed as residual activity at 100 nM by KINOMEscan analysis relative to control
[6] = biological target: Tyrosine-protein kinase Fgr (Homo sapiens) (UniProt P09769); assay: Inhibition of FGR (unknown origin) assessed as residual activity at 100 nM by KINOMEscan analysis relative to control
[7] = biological target: SRSF protein kinase 1 (Homo sapiens) (UniProt Q96SB4); assay: Inhibition of SRPK1 (unknown origin) assessed as residual activity at 100 nM by KINOMEscan analysis relative to control
[8] = biological target: Mitogen-activated protein kinase kinase kinase 4 (Homo sapiens) (UniProt Q9Y6R4); assay: Inhibition of MAP3K4 (unknown origin) assessed as residual activity at 100 nM by KINOMEscan analysis relative to control
[9] = biological target: Serine/threonine-protein kinase/endoribonuclease IRE1 (Homo sapiens) (UniProt O75460); assay: Inhibition of ERN1 (unknown origin) assessed as residual activity at 100 nM by KINOMEscan analysis relative to control
[10] = biological target: Calcium/calmodulin-dependent protein kinase type II subunit beta (Homo sapiens) (UniProt Q13554); assay: Inhibition of CAMK2B (unknown origin) assessed as residual activity at 100 nM by KINOMEscan analysis relative to control
Calcium/calmodulin-dependent protein kinase type II subunit beta (Homo sapiens), sequence (Q13554 whole entry): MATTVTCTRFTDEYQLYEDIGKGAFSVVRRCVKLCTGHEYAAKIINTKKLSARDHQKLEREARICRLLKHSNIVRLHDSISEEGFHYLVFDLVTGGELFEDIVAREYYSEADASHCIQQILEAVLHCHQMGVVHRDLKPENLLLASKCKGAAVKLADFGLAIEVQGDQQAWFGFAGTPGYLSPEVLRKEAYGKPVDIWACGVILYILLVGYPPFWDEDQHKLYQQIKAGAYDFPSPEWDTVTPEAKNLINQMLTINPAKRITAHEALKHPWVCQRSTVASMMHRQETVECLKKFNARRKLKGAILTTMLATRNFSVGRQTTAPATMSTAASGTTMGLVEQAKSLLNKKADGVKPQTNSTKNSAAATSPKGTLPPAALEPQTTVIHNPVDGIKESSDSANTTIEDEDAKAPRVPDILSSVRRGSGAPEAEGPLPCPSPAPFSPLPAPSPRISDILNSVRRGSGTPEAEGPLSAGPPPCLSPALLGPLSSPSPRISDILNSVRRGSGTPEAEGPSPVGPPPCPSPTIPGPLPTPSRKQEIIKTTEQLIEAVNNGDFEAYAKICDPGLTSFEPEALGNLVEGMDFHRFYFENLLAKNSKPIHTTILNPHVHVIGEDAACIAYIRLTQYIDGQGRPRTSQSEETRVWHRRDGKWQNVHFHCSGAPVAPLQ

Serine/threonine-protein kinase 38-like (Homo sapiens), sequence (Q9Y2H1 2-464 limits assumed): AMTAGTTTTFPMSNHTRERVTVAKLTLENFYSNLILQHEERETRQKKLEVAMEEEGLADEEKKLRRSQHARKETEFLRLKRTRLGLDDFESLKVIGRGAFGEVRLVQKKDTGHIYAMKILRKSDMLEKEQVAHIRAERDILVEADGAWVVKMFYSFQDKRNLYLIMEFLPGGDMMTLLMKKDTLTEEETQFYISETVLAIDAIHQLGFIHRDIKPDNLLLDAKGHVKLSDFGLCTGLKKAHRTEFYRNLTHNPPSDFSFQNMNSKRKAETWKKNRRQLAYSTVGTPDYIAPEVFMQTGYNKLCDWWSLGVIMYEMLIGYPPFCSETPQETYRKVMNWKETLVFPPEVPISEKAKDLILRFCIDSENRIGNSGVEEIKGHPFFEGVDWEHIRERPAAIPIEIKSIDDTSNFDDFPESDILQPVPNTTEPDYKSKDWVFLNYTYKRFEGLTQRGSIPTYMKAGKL
Tyrosine-protein kinase Fgr (Homo sapiens), sequence (P09769 2-529 limits assumed): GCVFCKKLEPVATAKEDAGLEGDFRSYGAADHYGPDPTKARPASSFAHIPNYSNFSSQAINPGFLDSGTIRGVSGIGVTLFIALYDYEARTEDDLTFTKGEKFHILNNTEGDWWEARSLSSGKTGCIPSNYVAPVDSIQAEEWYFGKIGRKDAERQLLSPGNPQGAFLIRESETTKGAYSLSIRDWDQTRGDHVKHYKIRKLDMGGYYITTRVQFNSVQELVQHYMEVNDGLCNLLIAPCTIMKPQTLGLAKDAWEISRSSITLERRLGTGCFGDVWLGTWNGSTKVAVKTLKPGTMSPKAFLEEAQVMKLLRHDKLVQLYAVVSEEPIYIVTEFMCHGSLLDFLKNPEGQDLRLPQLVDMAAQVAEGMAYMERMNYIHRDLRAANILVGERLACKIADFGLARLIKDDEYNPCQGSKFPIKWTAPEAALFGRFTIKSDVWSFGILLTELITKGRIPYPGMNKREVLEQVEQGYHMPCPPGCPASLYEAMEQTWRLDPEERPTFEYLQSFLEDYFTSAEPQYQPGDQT
Serine/threonine-protein kinase/endoribonuclease IRE1 (Homo sapiens), sequence (O75460 19-977 limits assumed): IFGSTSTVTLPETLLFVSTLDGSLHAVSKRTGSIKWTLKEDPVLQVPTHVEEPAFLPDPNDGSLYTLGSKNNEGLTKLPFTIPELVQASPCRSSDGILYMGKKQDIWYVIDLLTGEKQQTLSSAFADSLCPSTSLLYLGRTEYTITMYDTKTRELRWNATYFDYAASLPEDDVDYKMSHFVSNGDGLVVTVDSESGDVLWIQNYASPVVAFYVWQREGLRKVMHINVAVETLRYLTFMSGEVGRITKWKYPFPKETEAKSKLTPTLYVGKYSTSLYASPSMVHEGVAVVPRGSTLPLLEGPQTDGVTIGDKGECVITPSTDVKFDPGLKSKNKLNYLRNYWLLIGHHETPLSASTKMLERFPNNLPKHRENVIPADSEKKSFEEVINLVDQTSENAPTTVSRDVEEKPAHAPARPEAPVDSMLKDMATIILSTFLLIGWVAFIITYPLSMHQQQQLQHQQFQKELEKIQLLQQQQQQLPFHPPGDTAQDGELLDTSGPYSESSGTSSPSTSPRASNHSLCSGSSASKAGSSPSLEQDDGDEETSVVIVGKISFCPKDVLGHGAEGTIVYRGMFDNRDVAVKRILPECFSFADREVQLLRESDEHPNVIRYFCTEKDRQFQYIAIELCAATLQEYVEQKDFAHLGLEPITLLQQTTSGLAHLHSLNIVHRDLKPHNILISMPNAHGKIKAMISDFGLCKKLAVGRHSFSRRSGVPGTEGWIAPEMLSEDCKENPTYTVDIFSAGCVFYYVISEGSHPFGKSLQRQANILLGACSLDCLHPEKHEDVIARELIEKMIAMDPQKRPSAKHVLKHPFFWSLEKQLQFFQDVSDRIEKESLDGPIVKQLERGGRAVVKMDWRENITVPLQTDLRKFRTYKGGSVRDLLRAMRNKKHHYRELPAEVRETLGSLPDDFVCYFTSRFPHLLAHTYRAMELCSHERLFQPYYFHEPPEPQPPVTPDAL
SRSF protein kinase 1 (Homo sapiens), sequence (Q96SB4 whole entry): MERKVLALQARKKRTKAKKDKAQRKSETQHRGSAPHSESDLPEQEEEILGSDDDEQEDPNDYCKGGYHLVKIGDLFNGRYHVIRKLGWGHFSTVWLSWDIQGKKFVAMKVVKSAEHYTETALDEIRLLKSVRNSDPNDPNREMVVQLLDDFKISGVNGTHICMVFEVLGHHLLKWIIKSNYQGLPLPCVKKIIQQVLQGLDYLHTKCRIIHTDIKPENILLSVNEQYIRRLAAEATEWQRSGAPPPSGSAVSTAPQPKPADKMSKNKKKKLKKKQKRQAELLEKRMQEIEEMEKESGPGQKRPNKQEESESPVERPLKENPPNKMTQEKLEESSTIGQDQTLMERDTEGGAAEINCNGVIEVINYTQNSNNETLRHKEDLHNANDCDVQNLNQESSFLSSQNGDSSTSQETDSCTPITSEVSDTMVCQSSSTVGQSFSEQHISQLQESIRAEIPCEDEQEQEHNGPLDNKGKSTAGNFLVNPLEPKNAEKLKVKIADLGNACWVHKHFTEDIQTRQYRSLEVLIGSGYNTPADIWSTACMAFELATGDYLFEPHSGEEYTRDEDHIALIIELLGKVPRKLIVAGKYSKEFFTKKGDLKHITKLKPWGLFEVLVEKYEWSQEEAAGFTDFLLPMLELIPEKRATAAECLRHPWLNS
Mitogen-activated protein kinase kinase kinase 4 (Homo sapiens), sequence (Q9Y6R4 whole entry): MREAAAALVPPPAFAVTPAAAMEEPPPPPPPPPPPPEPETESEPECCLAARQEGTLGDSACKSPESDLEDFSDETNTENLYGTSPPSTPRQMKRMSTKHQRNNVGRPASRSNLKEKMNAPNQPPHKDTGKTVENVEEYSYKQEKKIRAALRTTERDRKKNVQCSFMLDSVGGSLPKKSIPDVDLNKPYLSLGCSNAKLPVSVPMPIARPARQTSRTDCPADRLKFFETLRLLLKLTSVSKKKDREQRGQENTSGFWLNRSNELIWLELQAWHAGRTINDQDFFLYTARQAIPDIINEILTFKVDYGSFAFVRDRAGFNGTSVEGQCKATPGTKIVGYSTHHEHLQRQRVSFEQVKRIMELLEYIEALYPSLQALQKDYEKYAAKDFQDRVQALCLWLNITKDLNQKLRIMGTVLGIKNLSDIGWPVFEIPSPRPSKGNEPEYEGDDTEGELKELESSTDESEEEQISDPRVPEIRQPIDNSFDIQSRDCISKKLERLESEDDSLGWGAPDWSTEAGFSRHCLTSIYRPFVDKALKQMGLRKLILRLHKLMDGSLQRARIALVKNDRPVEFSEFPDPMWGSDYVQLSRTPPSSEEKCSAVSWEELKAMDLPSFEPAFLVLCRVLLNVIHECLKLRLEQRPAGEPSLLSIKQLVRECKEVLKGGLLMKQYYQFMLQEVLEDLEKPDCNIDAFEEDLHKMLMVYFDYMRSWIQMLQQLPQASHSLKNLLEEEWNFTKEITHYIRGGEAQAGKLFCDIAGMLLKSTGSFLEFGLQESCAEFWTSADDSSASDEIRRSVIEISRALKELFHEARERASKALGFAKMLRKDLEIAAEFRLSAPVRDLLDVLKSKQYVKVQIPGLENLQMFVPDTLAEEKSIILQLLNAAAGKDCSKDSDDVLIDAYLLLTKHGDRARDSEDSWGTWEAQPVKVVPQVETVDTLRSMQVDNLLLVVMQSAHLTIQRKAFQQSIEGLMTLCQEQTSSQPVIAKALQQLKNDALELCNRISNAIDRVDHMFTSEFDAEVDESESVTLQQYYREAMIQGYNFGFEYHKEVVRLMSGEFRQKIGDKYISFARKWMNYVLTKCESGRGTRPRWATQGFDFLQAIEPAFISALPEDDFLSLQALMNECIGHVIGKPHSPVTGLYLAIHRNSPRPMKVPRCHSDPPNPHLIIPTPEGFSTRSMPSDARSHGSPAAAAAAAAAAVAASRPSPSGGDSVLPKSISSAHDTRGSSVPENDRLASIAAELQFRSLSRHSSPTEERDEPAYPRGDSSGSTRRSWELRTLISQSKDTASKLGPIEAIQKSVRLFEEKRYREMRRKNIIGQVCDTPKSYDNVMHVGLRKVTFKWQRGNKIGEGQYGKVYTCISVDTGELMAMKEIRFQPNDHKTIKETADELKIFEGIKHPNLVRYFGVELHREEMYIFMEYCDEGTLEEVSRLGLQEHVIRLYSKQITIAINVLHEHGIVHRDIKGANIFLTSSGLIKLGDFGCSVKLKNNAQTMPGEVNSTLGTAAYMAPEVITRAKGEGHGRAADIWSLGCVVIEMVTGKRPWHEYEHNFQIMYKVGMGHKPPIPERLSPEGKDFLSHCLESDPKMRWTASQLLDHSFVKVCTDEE

`COc1cc2ncnc(N[C@H](C)c3cccc4ccccc34)c2cc1OC` was tested, and the Activity [1] was 97%, the Activity [2] was 49% and the Activity [3] was “Active”. It also gave an Activity [4] of 80%, an Activity [5] of 90% and an Activity [6] of 81%. It also gave an Activity [7] of 95%, an Activity [8] of 68% and an Activity [9] of 96%. For the same molecule, the Activity [10] was 100%.
